# Measured values reported in ChEMBL document CHEMBL4130413, “1-Aryl-1H- and 2-aryl-2H-1,2,3-triazole derivatives blockade P2X7 receptor in vitro and inflammatory response in vivo” (Eur J Med Chem, 2017).
# Experiments:
# [1] = target: T1, UDP-glucuronosyltransferase 2B7 (Homo sapiens, UniProt P16662); assay: Drug metabolism assessed as UGT2B7 (unknown origin)-mediated metabolite formation; format: ADME
# T1 sequence (P16662 whole entry): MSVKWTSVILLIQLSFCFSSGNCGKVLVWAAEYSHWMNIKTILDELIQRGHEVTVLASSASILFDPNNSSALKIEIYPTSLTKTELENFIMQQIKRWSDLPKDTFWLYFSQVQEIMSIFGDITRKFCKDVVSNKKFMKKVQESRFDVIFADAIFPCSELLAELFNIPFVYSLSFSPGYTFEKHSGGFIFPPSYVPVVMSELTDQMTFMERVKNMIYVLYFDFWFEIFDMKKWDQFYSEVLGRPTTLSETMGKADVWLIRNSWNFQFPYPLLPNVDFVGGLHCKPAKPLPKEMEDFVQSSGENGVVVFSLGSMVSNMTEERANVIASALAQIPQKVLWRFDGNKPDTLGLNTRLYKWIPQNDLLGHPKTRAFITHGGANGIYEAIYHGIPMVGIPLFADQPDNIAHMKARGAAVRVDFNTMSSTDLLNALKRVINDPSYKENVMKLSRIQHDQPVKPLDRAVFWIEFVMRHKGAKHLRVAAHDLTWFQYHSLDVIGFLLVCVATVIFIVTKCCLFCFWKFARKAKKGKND
# [2] = target: T2, UDP-glucuronosyltransferase 1A9 (Homo sapiens, UniProt O60656); assay: Drug metabolism assessed as UGT1A9 (unknown origin)-mediated metabolite formation; format: ADME
# T2 sequence (O60656 whole entry): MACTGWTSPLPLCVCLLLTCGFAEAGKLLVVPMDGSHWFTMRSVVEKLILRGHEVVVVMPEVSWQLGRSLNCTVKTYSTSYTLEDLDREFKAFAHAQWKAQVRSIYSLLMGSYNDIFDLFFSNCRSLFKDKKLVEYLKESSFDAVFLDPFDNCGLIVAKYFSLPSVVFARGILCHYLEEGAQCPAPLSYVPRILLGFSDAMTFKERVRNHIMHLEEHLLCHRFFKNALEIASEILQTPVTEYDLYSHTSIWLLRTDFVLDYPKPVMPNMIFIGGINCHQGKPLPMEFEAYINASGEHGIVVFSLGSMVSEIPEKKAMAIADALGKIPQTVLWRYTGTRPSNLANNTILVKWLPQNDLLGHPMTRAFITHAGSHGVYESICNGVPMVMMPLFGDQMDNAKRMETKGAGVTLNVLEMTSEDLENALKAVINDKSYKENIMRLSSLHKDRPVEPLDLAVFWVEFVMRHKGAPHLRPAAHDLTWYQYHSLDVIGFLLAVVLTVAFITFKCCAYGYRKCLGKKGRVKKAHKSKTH
# Mus musculus = assay: Anti-inflammatory activity in po dosed Swiss Webster mouse assessed as inhibition of carrageenan-induced paw edema pretreated for 60 mins followed by carrageenan administration and measured after 60 mins; format: functional
# Cytochrome P450 2D6 = Cytochrome P450 2D6 (Homo sapiens, UniProt P10635)
# Description: Drug metabolism assessed as CYP2D6 (unknown origin)-mediated metabolite formation
# Cytochrome P450 2C19 = Cytochrome P450 2C19 (Homo sapiens, UniProt P33261)
# Description: Drug metabolism assessed as CYP2C19 (unknown origin)-mediated metabolite formation
# [3] = target: T3, UDP-glucuronosyltransferase 1A3 (Homo sapiens, UniProt P35503); assay: Drug metabolism assessed as UGT1A3 (unknown origin)-mediated metabolite formation; format: ADME
# T3 sequence (P35503 whole entry): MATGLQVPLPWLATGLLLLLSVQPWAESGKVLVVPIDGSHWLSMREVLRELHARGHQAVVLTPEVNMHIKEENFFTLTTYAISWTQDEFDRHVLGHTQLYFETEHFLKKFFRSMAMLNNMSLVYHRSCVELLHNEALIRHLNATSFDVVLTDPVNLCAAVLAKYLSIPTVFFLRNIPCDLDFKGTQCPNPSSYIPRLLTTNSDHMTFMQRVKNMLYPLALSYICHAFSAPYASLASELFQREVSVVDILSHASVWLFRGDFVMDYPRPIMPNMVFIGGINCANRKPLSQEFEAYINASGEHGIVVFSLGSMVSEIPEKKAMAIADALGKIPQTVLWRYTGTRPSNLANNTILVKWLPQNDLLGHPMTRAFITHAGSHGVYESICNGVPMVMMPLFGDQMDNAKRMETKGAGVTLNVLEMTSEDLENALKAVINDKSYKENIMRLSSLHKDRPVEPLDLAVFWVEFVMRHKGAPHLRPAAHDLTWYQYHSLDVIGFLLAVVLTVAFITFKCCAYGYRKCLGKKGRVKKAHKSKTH
# [4] = target: T4, UDP-glucuronosyltransferase 1A10 (Homo sapiens, UniProt Q9HAW8); assay: Drug metabolism assessed as UGT1A10 (unknown origin)-mediated metabolite formation; format: ADME
# T4 sequence (Q9HAW8 whole entry): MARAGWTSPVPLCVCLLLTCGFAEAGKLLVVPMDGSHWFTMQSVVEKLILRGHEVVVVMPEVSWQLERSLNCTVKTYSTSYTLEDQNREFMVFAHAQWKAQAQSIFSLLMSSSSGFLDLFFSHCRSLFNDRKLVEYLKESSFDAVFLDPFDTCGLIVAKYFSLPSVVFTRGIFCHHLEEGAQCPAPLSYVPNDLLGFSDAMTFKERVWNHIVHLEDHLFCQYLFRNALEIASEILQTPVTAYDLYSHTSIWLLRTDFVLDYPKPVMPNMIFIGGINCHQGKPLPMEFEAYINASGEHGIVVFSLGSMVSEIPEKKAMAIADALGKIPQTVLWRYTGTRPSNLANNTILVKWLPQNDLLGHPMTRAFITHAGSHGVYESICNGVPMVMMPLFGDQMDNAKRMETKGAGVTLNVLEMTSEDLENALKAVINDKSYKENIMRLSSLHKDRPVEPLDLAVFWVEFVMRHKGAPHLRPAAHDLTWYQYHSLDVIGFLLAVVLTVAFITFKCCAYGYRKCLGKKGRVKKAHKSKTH
# Cytochrome P450 1A2 = target: T5, Cytochrome P450 1A2 (Homo sapiens, UniProt P05177)
# T5 sequence (P05177 whole entry): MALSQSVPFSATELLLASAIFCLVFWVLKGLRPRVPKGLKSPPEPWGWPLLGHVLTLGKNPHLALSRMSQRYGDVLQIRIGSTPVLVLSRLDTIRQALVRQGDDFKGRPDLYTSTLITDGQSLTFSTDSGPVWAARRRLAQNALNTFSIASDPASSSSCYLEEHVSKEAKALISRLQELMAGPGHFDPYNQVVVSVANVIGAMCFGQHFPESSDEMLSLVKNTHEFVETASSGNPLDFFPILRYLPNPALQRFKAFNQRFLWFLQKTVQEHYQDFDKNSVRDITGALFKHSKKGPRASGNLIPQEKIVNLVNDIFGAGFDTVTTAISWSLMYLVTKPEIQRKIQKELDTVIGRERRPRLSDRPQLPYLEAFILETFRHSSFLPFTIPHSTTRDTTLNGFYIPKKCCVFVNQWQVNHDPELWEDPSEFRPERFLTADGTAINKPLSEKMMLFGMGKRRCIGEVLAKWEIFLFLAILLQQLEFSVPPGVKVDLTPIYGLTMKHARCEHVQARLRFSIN
# Description: Drug metabolism assessed as CYP1A2 (unknown origin)-mediated metabolite formation
# Cytochrome P450 2C9 = Cytochrome P450 2C9 (Homo sapiens, UniProt P11712)
# Sequence of Cytochrome P450 2C9 (P11712 whole entry): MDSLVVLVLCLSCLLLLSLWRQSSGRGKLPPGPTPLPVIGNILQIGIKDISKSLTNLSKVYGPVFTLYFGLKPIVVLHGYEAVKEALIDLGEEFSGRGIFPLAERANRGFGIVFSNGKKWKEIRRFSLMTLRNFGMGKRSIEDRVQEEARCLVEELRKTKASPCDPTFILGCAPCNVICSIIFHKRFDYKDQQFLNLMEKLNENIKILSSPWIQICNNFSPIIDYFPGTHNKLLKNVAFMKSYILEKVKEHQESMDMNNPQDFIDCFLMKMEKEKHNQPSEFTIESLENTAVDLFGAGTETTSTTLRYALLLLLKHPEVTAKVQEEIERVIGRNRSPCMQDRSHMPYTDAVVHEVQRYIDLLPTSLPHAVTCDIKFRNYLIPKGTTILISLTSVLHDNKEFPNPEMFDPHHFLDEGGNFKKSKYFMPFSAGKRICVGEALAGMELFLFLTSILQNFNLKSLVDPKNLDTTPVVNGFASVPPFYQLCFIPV
# Description: Drug metabolism assessed as CYP2C9 (unknown origin)-mediated metabolite formation
# Sequence of Cytochrome P450 2D6 (P10635 whole entry): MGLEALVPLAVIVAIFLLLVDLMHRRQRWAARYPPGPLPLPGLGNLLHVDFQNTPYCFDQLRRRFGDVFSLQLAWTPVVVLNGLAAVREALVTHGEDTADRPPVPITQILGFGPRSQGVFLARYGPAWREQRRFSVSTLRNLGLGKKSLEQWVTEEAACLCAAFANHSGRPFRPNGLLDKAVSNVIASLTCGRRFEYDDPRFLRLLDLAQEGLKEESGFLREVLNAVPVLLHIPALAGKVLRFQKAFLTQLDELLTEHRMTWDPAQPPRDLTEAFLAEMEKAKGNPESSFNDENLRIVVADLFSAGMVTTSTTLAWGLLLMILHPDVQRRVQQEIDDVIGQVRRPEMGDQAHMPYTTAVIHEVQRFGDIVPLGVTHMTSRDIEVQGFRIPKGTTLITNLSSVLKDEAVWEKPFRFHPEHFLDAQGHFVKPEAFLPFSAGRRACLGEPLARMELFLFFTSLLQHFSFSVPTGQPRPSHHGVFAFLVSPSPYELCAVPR
# Sequence of Cytochrome P450 2C19 (P33261 whole entry): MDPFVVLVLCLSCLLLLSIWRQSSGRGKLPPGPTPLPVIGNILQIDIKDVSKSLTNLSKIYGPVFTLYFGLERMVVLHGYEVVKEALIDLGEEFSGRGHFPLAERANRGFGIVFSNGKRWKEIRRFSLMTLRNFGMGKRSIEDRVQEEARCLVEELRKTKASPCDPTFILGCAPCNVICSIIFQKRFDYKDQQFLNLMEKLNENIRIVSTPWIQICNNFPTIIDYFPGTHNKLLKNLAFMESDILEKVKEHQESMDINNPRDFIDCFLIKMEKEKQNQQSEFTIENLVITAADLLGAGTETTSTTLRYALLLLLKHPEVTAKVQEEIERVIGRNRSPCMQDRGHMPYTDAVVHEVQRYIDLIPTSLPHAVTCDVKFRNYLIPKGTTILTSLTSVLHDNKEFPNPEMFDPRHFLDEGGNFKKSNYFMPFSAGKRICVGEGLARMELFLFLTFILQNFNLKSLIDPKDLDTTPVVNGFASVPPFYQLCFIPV
smiles,measurement,setting,value
CCOCc1cn(-c2ccc(Cl)cc2)nn1,Drug metabolism,[1],Metabolite_Notdetected
same,Drug metabolism,[2],Metabolite_Notdetected
same,ID50,Mus musculus,80.49 ng/kg
same,Drug metabolism,Cytochrome P450 2D6,Metabolite_Notdetected
same,Drug metabolism,Cytochrome P450 2C19,Metabolite_Notdetected
same,Drug metabolism,[3],Metabolite_Notdetected
same,Drug metabolism,[4],Metabolite_Notdetected
same,Drug metabolism,Cytochrome P450 1A2,Metabolite_Detected
same,Drug metabolism,Cytochrome P450 2C9,Metabolite_Notdetected
COc1ccc2cc([C@H](C)C(=O)O)ccc2c1 [NAPROXEN],Drug metabolism,[1],Metabolite_Detected
same,Drug metabolism,[2],Metabolite_Detected
same,Drug metabolism,[3],Metabolite_Detected
same,Drug metabolism,[4],Metabolite_Notdetected
O=C(O)Cc1ccccc1Nc1c(Cl)cccc1Cl [DICLOFENAC],Drug metabolism,[1],Metabolite_Detected
same,Drug metabolism,[2],Metabolite_Notdetected
same,Drug metabolism,Cytochrome P450 2D6,Metabolite_Notdetected
same,Drug metabolism,Cytochrome P450 2C19,Metabolite_Notdetected
same,Drug metabolism,[3],Metabolite_Detected
same,Drug metabolism,[4],Metabolite_Notdetected
same,Drug metabolism,Cytochrome P450 1A2,Metabolite_Notdetected
same,Drug metabolism,Cytochrome P450 2C9,Metabolite_Detected
CC(C)Cc1ccc(C(C)C(=O)O)cc1 (centres undefined) [IBUPROFEN],Drug metabolism,[1],Metabolite_Detected
same,Drug metabolism,[2],Metabolite_Detected
same,Drug metabolism,Cytochrome P450 2D6,Metabolite_Notdetected
same,Drug metabolism,Cytochrome P450 2C19,Metabolite_Notdetected
same,Drug metabolism,[3],Metabolite_Detected
same,Drug metabolism,[4],Metabolite_Notdetected
same,Drug metabolism,Cytochrome P450 1A2,Metabolite_Notdetected
same,Drug metabolism,Cytochrome P450 2C9,Metabolite_Detected
